The values below are quoted from earlier work in patent US20120129178A1, “GENOMIC POLYMORPHISM FOR PREDICTING THERAPEUTIC RESPONSE” (University of Southern California, priority 1999, published 2012).

Where two headings read alike, the source gives them in different places.

Data set [1] has as its system patients with gastric cancer. The settings on record: gastric cancer patients treated with 5-Fu.
The test system of data set [2] is patients with disseminated colon cancer. The following applies: 46 patients with disseminated colon cancer; TS mRNA levels higher than 4.1.

On to `O=c1[nH]cc(F)c(=O)[nH]1` [5-FU, 5-Fluorouracil], for which the median survival in data set [1] (TS mRNA levels >4.6) was 6 months; in data set [1] (TS mRNA levels of 54.6 (so in the source)), no less than 43 months. In addition, the “response to 5-FU based treatment” value in data set [2] was “No patient with TS mRNA levels higher than 4.1 responded to treatment”.
